Measured values reported in PMC4601051, “Discovery of Indoline-2-carboxamide Derivatives as a New Class of Brain-Penetrant Inhibitors of Trypanosoma brucei” (Journal of Medicinal Chemistry, 2015).
≈ marks a conversion by molar mass, not a printed value. Where “and” joins values, the source holds several entries; their conditions need not be identical. Equal entries are not always repeated. Where two headings read alike, the source gives them in different places.

Assays:
T. b. brucei GVR35 = conditions: 12.5 mg/kg IP b.i.d. for 5 d from 21 d post infection, majority of mice
Experimental: For stage 2 of infection, the standard model is T. b. brucei GVR35 in which CNS infection is allowed to develop in female NMRI mice before treatment starts, requiring about 21 d.
These were carried out as previously described[27],[32] at the dose level presented and using the same dose formulation as the pharmacokinetic studies. HRN mice were used under the same infection and monitoring protocol as described for female NMRI mice.

[1] = tested on: bloodstream form T. brucei brucei; experiment: T. b. brucei whole cell parasite (trypanosome growth) assay; type: cell-based, Trypanosoma brucei brucei
Experimental: This was conducted as previously described.[27] Cell culture plates were stamped with 1 μL of an appropriate stock concentration of test compound, followed by addition of 200 μL of trypanosome culture (HMI9-T, 10% FCS) to each well at a density of 2000 cells per well (except column 12 receiving media only). […] Potency was carried out using 10-point dose–response curves.

[2] = Mouse brain penetration (brain:blood ratio); conditions: in vivo, dosed intravenously at 0.5 or 1 mg/kg, levels measured after 5 min, female NMRI mice, read-out: B:B (brain to blood ratio)
Experimental: Each compound was dosed as a bolus solution intravenously at 0.5 or 1 mg free base/kg (dose volume, 5 mL/kg; dose vehicle, 10% DMSO; 40% PEG400; 50% Milli-Q water) to female NMRI mice (n = 6). At 5 and 30 min following intravenous bolus injection of test compound, mice (n = 3/time point) were placed under terminal anesthesia with isofluorane. A blood sample was taken by cardiac puncture and mixed with two volumes of distilled water, the mice decapitated, and the brain removed. Diluted blood and brains were stored frozen until preparation and analysis by UPLC/MS/MS. For each mouse at each time point, the concentration in brain (ng/g) was divided by the concentration in blood (ng/mL) to give a brain:blood ratio. The mean value obtained was quoted.

[3] = Aqueous kinetic solubility by laser nephelometry; type: physicochemical; conditions: aqueous medium, Table 7
Experimental: The software package StarDrop by Optibrium was used to calculate physicochemical parameters including log P, molecular weight, and polar surface area (PSA). The aqueous kinetic solubility of the compounds was measured using laser nephelometry as previously described.[40] The plasma protein binding of the compounds was determined by the equilibrium dialysis method.[12]

[4] = In vivo mouse pharmacokinetics; conditions: for Cmax / Tmax / half-life / AUC(0-t) at 8 h / AUC(0-t): female, mouse, in vivo, 10 mg/kg, NMRI mice; for AUC(0-t) at 8 h: read-out: AUC0–8; for AUC(0-t): read-out: AUC0–8 (converted)
Experimental: Each compound was dosed as a bolus solution intraperitoneally at 10 mg free base/kg (dose volume, 10 mL/kg; dose vehicles used, 10% DMSO; 40% PEG400; 50% Milli-Q water or 5% DMSO; 40% PEG400; 55% saline) to female HRN (1 only) or NMRI mice (n = 3) or dosed orally by gavage as a solution at 10 mg free base/kg (dose volume, 10 mL/kg; dose vehicle, 10% DMSO; 40% PEG400; 50% Milli-Q water) to female NMRI mice (n = 3). Female NMRI mice were chosen, as these represent the sex and strain used for the stage 1 and stage 2 HAT efficacy models. Blood samples were taken from each mouse at 5 (IP only), 15, and 30 min, 1, 2, 4, 6, and 8 h post dose, mixed with two volumes of distilled water, and stored frozen until UPLC/MS/MS analysis. Pharmacokinetic parameters were derived from noncompartmental analysis of the blood concentration time curve using PK solutions software v 2.0 (Summit Research Services, USA).

[5] = Brain tissue binding by equilibrium dialysis; type: in vitro ADME; conditions: Sprague-Dawley, brain homogenate; rat (male SD rat); read-out: brain tissue binding (rat), Fu
Experimental: In brief, a 96-well equilibrium dialysis apparatus was used to determine the free fraction in the brain for the test compound (HT Dialysis LLC, Gales Ferry, CT). Membranes (12–14 kDa A cutoff) were conditioned in deionized water for 60 min, followed by conditioning in 80:20 deionized water:ethanol for 20 min and then rinsed in artificial cerebrospinal fluid (CSF) before use. Mouse brain was removed from the freezer and allowed to thaw on the day of experiment. […] Diluted brain homogenate was spiked with the test compound (10 ug/g), and 150 μL aliquots (n = 6 replicate determinations) loaded into the 96-well equilibrium dialysis plate. Dialysis vs artificial CSF (150 μL) was carried out for 5 h in a temperature controlled incubator at ca. 37 °C (Stuart scientific Ltd., UK) using an orbital microplate shaker at 125 rpm (Stuart scientific Ltd., UK). […] All samples were analyzed by means of UPLC/MS/MS on a Quattro Premier XE mass spectrometer (Waters Corporation, USA). The unbound fraction was determined as the ratio of the peak area in artificial CSF to that in brain, with correction for dilution factor according to eq 1.[42] […] 1 where D = dilution factor in brain homogenate and Fu,apparent is the measured free fraction of diluted brain homogenate.

[6] = Maximum tolerated dose (MTD) studies
[7] = Microsomal intrinsic clearance (Clint), mouse; type: in vitro ADME; conditions: mouse liver microsomes, 0.5 μM compound
in vitro = conditions: human, MRC-5 fibroblasts
Experimental: Proliferation assays using bloodstream form T. brucei brucei and human MRC-5 fibroblasts were conducted using a modification of the cell viability assay as previously reported.[27],[39]
MRC-5 cells (2000 cells per well) were seeded in 200 μL of DMEM, 10% FCS, and allowed to adhere overnight. One microliter of test compound was added to each well on the day of assay initiation.
The final DMSO level was 0.5% in all cases.

CNC(=O)[C@H]1Cc2ccccc2N1C(=O)Cc1ccc(F)cc1 [Compound 47, (R)-1-(2-(4-Fluorophenyl)acetyl)-N-methylindoline-2-carboxamide]
relapse with parasitaemia later than vehicle dosed infected mice (T. b. brucei GVR35): 6 to 13 days
Hill slope ([1]; T. brucei EC50 curve): 2.8
EC50 ([1]; Trypanosoma brucei, mean of two or more determinations, 69 h + 4 h resazurin, read-out: T. b. brucei EC50): 50 nM
Kp at 5 min [2]: 0.9
solubility [3]: 64 µg/mL (≈ 205 µM)
higher AUC compared to 1 ([4]; IP, female NMRI mice): 1.5–6.5 fold
Cmax ([4]; IP): 2300 ng/mL and 7.4 µM
Tmax ([4]; IP): 15 min
half-life ([4]; IP): 30 min
AUC(0-t) at 8 h ([4]; IP): 9.1 µM·h
AUC(0-t) ([4]; IP): 2830 ng·h/mL
Cmax ([4]; PO): 750 ng/mL and 2.4 µM
Tmax ([4]; PO): 30 min
half-life ([4]; PO): 36 min
AUC(0-t) at 8 h ([4]; PO): 3.3 µM·h
AUC(0-t) ([4]; PO): 1020 ng·h/mL
fraction unbound at 5 h, 10 ug/g [5]: 0.43
tolerability ([6]; 15 mg/kg IP b.i.d., female NMRI mice (47: for 3 days)): well tolerated
tolerability ([6]; 25 mg/kg after a single dose, female NMRI mice): clinical signs of toxicity
mouse microsomal intrinsic clearance [7]: 1.9 mL min^–1 g^–1 and 1.9/ND mL min^–1 g^–1
EC50 at 69 h (in vitro): > 50000 nM
